Reference: ChEMBL document CHEMBL1125008 (J Med Chem, 1990)

Experiments:
[1] = biological target: T1, Serotonin 3 receptor (5HT3) (Mus musculus) (UniProt Q9JHJ5+P23979); test: (§1) The binding affinity was measured for 5-hydroxytryptamine 3 receptor on NG 108-15 cell line of mouse neuroblastoma-glioma cells in presence of [3H]5 radioligand (in vitro); format: cell-based; conditions: concentration not given here
[2] = biological target: T2, Serotonin 3 receptor (5HT3) (Mus musculus, UniProt Q9JHJ5+P23979); test: as §1; format: cell-based
T2 sequence (Q9JHJ5 whole entry): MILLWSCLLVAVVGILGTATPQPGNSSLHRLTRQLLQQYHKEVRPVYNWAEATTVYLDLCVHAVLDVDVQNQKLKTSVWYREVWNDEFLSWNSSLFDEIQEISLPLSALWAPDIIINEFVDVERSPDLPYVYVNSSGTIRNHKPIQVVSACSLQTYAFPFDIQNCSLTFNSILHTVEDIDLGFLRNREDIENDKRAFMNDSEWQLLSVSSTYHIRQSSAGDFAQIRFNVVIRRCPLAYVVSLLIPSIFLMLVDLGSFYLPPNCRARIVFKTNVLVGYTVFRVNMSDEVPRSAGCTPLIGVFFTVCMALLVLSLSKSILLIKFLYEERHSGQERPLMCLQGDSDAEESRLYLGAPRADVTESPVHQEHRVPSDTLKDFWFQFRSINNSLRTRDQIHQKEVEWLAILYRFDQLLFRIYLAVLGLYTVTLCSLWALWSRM
T2 sequence (P23979 whole entry): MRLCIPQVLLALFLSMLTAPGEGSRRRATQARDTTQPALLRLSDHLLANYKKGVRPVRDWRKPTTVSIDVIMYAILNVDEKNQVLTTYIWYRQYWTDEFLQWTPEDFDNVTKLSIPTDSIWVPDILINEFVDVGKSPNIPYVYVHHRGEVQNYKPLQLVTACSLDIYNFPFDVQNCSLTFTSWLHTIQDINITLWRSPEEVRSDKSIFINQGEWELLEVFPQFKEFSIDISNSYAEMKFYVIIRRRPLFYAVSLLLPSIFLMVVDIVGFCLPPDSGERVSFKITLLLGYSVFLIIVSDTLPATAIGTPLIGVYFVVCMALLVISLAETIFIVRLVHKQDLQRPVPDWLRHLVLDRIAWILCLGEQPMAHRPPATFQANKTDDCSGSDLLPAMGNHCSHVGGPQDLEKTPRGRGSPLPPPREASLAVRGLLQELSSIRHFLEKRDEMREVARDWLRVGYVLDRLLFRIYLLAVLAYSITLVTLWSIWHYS

[3] = biological target: T1, Serotonin 3 receptor (5HT3) (Mus musculus); test: Percent inhibition of [3H]5 binding to 5-hydroxytryptamine 3 receptor was evaluated by injection of compound (75 microCi/kg, […]) into the tail vein of mice (in vivo); format: organism-based

Row | SMILES | inhibition [1] [%] | Ki [2] [nM] | also measured
1 | Cc1[nH]cnc1Cc1nc(-c2ccccc2)cs1 | 53 |  | 
2 | c1ccc2nc(N3CCNCC3)ccc2c1 [QUIPAZINE] |  | 8.67 | 
3 | Cc1nccn1CC1CCc2c(c3ccccc3n2C)C1=O (stereo not drawn) [ONDANSETRON] |  | 12 | 
4 | Cc1[nH]cnc1Cc1nc(-c2ccccc2F)cs1 | 66 |  | 
5 | Cc1[nH]c2ccc(O)cc2c1CCN |  | 1430 | 
6 | Cc1[nH]cnc1Cc1nc(-c2cccc3cccnc23)cs1 |  |  | inhibition [3]: 54%
7 | CN1[C@@H]2CC[C@H]1C[C@@H](OC(=O)c1c[nH]c3ccccc13)C2 [TROPISETRON] |  | 3.8 | 
8 | COc1ccccc1-c1csc(Cc2[nH]cnc2C)n1 | 50 |  | 
